Results taken from publication doi:10.1101/2020.09.01.277368v1, “Disulfiram inhibits M. tuberculosis growth by altering methionine pool, redox status and host-immune response” (biorxiv, 2020).

Biological target: T1, MetA (HSAT, homoserine acetyl transferase, Rv3341) (Mycobacterium tuberculosis, UniProt P9WJY9)
T1 construct: gene metXA
Test: endpoint DTNB CoA release assay
Type: biochemical

T1 sequence (P9WJY9 whole entry, looked up): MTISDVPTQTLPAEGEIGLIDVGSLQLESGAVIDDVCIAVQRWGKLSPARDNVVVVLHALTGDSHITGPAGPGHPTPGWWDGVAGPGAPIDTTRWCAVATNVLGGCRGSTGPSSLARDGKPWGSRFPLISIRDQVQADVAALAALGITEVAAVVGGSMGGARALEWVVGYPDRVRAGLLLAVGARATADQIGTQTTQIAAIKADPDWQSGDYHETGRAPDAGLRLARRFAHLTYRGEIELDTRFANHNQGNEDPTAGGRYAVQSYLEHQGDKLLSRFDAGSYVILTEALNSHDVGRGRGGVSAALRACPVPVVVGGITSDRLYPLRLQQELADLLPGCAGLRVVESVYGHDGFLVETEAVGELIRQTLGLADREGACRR

| SMILES | % inhibition at 100 μM |
| --- | --- |
| COc1cc(-c2ccc(Nc3ccccc3C(=O)O)c(OC)c2)ccc1Nc1ccccc1C(=O)O [NSC73735] | > 50% |
| Cc1ccc(S(=O)(=O)SC/C=C/CSS(=O)(=O)c2ccc(C)cc2)cc1 [NSC624158] | > 50% |
| Oc1cc(-n2cccn2)c(O)cc1-n1cccn1 [NSC645987] | > 50% |
| Oc1cc(CNC2CCCCC2)c(O)cc1CNC1CCCCC1 [NSC48443] | > 50% |
| O=Nc1c(-c2cccc([N+](=O)[O-])c2)nc2ncccn12 [NSC369066] | > 50% |
| CCOC(=O)/C(C#N)=C1\SS/C(=C(/C#N)C(=O)OCC)S1 [NSC98363] | > 50% |
| C/C(=N\NC(=S)N(C)C)c1ccccn1.[Cu][Br] [NSC635448] | > 50% |
